Earlier results as cited in patent US9023888B2, “Composition of monoterpenoids having bactericidal properties” (priority 2011, dated 2015).

Key:
Staph. aureus = settings: broth dilution
E. coli = settings: for E. coli MBC (v/v %) / E. coli MBC ppm / E. coli MIC (v/v %) / E. coli MIC ppm: broth dilution

| SMILES | Staph. aureus MBC (v/v %) (Staph. aureus) | Staph. aureus MBC ppm (Staph. aureus) | Staph. aureus MIC (v/v %) (Staph. aureus) | Staph. aureus MIC ppm (Staph. aureus) | E. coli MBC (v/v %) (E. coli) | E. coli MBC ppm (E. coli) | E. coli MIC (v/v %) (E. coli) | E. coli MIC ppm (E. coli) | antibacterial activity (summary of Table 2 in words) (E. coli; E. coli and Staph. aureus data of Table 2) |
| --- | --- | --- | --- | --- | --- | --- | --- | --- | --- |
| CC1=CCC(C(C)(C)O)CC1 (centres unmarked) [∝-terpineol] | 0.25 v/v % | 2500 ppm | 0.25 v/v % | 2500 ppm | 0.06 v/v % | 600 ppm | 0.06 v/v % | 600 ppm |  |
| Cc1ccc(C(C)C)cc1 [p-cymene] | >8.0 v/v % | No level | >8.0 v/v % | No level | >8.0 v/v % | No level | >8.0 v/v % | No level | no effect at all |
